Measurements: US20120009320A1, “COMPOSITIONS COMPRISING MONATIN AND CALCIUM” (priority 2009, published 2012)
Counter-ions that a name gives are not always drawn.

Experiments:
[1] = Sweetness of monatin stereoisomers relative to sucrose by weight (from SEV); type: in vivo; details: general statement of the description; listed as R,R stereoisomer of monatin, mono potassium salt
Procedure: As used herein, “sucrose equivalency value”, or SEV, is a measure of sweetness. The SEV is the concentration (% w/v) of a sucrose solution that gives a degree of sweetness that is perceived to be the same degree of sweetness as that of a test sample. For purposes of this disclosure, the SEV of an aqueous or dairy solution containing monatin is determined through comparison of the monatin-containing solution to a series of sucrose containing solutions prepared in the same medium (see Example 1).
Monatin-containing compositions are described herein as being “X” times as sweet as sucrose. The various stereoisomers of monatin are also described as being “X” times sweeter than sucrose. These values are determined from the SEV of the compositions.

panelists [2] = assay: Concentration-response of monatin sweetness (SEV) in milk and diluted yogurt, Example 2; type: in vivo, human
Procedure: Monatin, aspartame and sucralose samples were prepared in milk (2% fat) and diluted with plain, fat-free yogurt. Sucrose reference solutions were prepared in solutions of the same medium.
Panelists (8-10) were presented with a range (2-12%; w/v) of sucrose reference solutions and a single test sample. They were instructed to taste the test sample and then to identify the reference sample that matched the perceived sweetness of the test sample. If the sweetness of the test sample was judged to fall between that of two references, panelists were asked to estimate sweetness to one decimal point. Panelists evaluated each sample in duplicate. All results for each test sample were averaged.
Sweetener test samples and sucrose references were prepared as solutions in the following mediums: • (1) Milk (2% fat) at pH 6.8. • (2) A diluted plain (unsweetened and unflavored) yogurt was sheared with water (80 parts yogurt and 20 parts water) to yield an acidic solution based on fermented milk with a final pH of 4.6.

panelists [3] = assay: Three-member panel rating (0-9 scale) of difference in sweetness due to calcium at <=200 ppm; type: in vivo, human; parameters: key: 0 = none; 1 = trace; 2 = faint; 3 = slight; 4 = mild; 5 = moderate; 6 = definite; 7 = strong; 8 = very strong; 9 = extreme; details: 20 ppm monatin in water, vs control without calcium
Procedure: The samples in Table 5 were prepared by adding 20 ppm of monatin to water in combination with an amount of calcium ranging between 12.5 ppm and 200 ppm. A control sample having 20 ppm of monatin and no calcium was also used. The monatin was in the R,R, form and prepared through a biosynthetic pathway as disclosed in U.S. Patent Publication No. 2005/282260. A three-member panel was used to evaluate sweetness, but instead of quantifying the sample in terms of sweetness equivalency (SEV), the panelists assigned the sample a number between 0 and 9 (see description of scale under Table 5).

[4] = Sweetness match of monatin-sweetened strawberry yogurt to 8% sucrose target; type: in vivo
Procedure: A strawberry yogurt sweetened with about 8% sucrose was prepared by conventional methods common to one skilled in the art of yogurt manufacturing to serve as a sweetness target. […] The monatin-sweetened yogurt that most closely matched the sweetness of the target sucrose sample was chosen.

[5] = Sweetness match of monatin-sweetened chocolate milk to 10% sucrose target; type: in vivo
Procedure: A chocolate milk composition sweetened with 42 DE high fructose corn syrup (HFCS) to about 10% sucrose was prepared by conventional methods common to one skilled in the art of flavored milk manufacturing to serve as a sweetness target. The amount of monatin in the five samples was about 25 ppm, about 30 ppm, about 35 ppm, about 40 ppm and about 45 ppm. Each of the five samples of monatin-sweetened milk were compared to the target milk sample containing 10% sucrose. The monatin-sweetened milk that most closely matched the sweetness of the target sucrose sample was chosen.

[6] = Sweetness match of monatin-sweetened vanilla ice cream to 13% sucrose target; type: in vivo
Procedure: A vanilla ice cream sweetened with about 13% sucrose was prepared by conventional methods common to one skilled in the art of ice cream manufacturing to serve as a sweetness target. Then a set of seven (7) ice cream samples were sweetened with R,R-monatin monopotassium salt using the ingredients listed in Table 13. The amount of monatin in the seven samples was about 35 ppm, about 40 ppm, about 45 ppm, about 50 ppm, about 55 ppm, about 60 ppm and about 70 ppm. Each of the seven samples of monatin-sweetened ice cream were compared to the target ice cream sample containing 13% sucrose. The monatin-sweetened ice cream that most closely matched the sweetness of the target sucrose sample was chosen.

[7] = Diluted Yogurt (pH 4.6), monatin 10 ppm
[8] = Diluted Yogurt (pH 4.6), monatin 20 ppm
[9] = Diluted Yogurt (pH 4.6), monatin 30 ppm
[10] = Diluted Yogurt (pH 4.6), monatin 40 ppm
[11] = Diluted Yogurt (pH 4.6), monatin 50 ppm
[12] = Milk, 2% fat (pH 6.8), monatin 5 ppm
[13] = Milk, 2% fat (pH 6.8), monatin 10 ppm
[14] = Milk, 2% fat (pH 6.8), monatin 20 ppm
[15] = Milk, 2% fat (pH 6.8), monatin 30 ppm
[16] = Milk, 2% fat (pH 6.8), monatin 40 ppm
[17] = Milk, 2% fat (pH 6.8), monatin 50 ppm

NC(CC(O)(Cc1c[nH]c2ccccc12)C(=O)O)C(=O)O (stereo not drawn) [R,R-Monatin, 2R,4R-Monatin mono potassium salt]
times sweeter than sucrose by weight [1]: 2000-2400 times
Relative Sweetness (panelists [2]; [7]): 4,000 ×sucrose
SEV (panelists [2]; [7]): 4.0 % sucrose; w/v
Relative Sweetness (panelists [2]; [8]): 3,300 ×sucrose
SEV (panelists [2]; [8]): 6.6 % sucrose; w/v
Relative Sweetness (panelists [2]; [9]): 3,100 ×sucrose
SEV (panelists [2]; [9]): 9.3 % sucrose; w/v
Relative Sweetness (panelists [2]; [10]): 2,625 ×sucrose
SEV (panelists [2]; [10]): 10.5 % sucrose; w/v
Relative Sweetness (panelists [2]; [11]): 2,280 ×sucrose
SEV (panelists [2]; [11]): 11.4 % sucrose; w/v
Relative Sweetness (panelists [2]; [12]): 4,000 ×sucrose
SEV (panelists [2]; [12]): 2.0 % sucrose; w/v
Relative Sweetness (panelists [2]; [13]): 3,000 ×sucrose
SEV (panelists [2]; [13]): 3.0 % sucrose; w/v
Relative Sweetness (panelists [2]; [14]): 2,750 ×sucrose
SEV (panelists [2]; [14]): 5.5 % sucrose; w/v
Relative Sweetness (panelists [2]; [15]): 2,270 ×sucrose
SEV (panelists [2]; [15]): 6.8 % sucrose; w/v
Relative Sweetness (panelists [2]; [16]): 2,100 ×sucrose
SEV (panelists [2]; [16]): 8.4 % sucrose; w/v
Relative Sweetness (panelists [2]; [17]): 1,780 ×sucrose
SEV (panelists [2]; [17]): 8.9 % sucrose; w/v
Difference in Sweetness Due to Calcium (panelists [3]; calcium 12.5 ppm): 1
Difference in Sweetness Due to Calcium (panelists [3]; calcium 25 ppm): 3
Difference in Sweetness Due to Calcium (panelists [3]; calcium 50 ppm): 4
Difference in Sweetness Due to Calcium (panelists [3]; calcium 100 ppm): 5
Difference in Sweetness Due to Calcium (panelists [3]; calcium 200 ppm): 6
monatin concentration that most closely matched the sweetness of yogurt sweetened to 8% sucrose ([4]; strawberry yogurt): about 25 ppm
times as sweet as sucrose ([4]; strawberry yogurt): about 3200 times
SEV ([4]; strawberry yogurt with 25 ppm R,R monatin): about 8%
monatin concentration that most closely matched the sweetness of milk sweetened to 10% sucrose [5]: about 35 ppm
times as sweet as sucrose [5]: about 2800 times
monatin concentration that most closely matched the sweetness of ice cream sweetened to 13% sucrose [6]: about 45 ppm
times as sweet as sucrose [6]: about 2800 times
